Results on two compounds are retold here after patent publication US20140275094A1, “METHOD FOR TREATING PULMONARY ARTERIAL HYPERTENSION IN A PATIENT NOT HAVING IDIOPATHIC PULMONARY FIBROSIS” (GILEAD SCIENCES, INC., priority 2012, published 2014).

For orientation: IC50 means the concentration that inhibits the measured activity by half. Higher therefore signals a need for much substance.

For series [1], the target named is T1, OATP1B3 (Homo sapiens, UniProt Q9NPD5).
T1 construct: expressed in transfected cells; host or cells: CHO
T1 sequence (Q9NPD5 1-702): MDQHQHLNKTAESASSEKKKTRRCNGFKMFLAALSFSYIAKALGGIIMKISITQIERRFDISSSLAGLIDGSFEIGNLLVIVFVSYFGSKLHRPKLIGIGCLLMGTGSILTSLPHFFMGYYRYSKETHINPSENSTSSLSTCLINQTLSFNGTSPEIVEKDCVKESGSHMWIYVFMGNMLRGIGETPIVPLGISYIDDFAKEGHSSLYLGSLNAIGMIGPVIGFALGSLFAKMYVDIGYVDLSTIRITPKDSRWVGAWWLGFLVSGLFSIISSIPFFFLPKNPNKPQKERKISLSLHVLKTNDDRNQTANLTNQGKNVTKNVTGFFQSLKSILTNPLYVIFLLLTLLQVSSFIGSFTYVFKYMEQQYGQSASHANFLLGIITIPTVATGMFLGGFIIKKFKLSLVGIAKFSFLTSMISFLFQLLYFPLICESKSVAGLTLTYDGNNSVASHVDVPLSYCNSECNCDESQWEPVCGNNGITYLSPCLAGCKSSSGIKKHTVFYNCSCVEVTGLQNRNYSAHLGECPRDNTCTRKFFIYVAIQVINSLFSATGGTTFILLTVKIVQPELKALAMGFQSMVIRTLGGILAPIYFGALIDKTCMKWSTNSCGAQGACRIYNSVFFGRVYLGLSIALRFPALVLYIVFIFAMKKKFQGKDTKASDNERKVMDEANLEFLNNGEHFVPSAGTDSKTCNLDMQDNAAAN
The series can be described thus: Inhibition of OATP1B3, transfected CHO cells. It counts as cell-based. As to conditions: OAT1B3. On the procedure:
(§1) Inhibition constants (IC50) were measured for human bile salt export pump (BSEP), sodium taurocholate cotransporting polypeptide (NTCP), multidrug resistance protein 2 (MRP2), P-glycoprotein (Pgp), breast cancer resistance protein (BCRP), organic anion-transporting polypeptide 1B1 (OATP1B1), and OATP1B3 in transfected cell-lines. Known inhibitors were used as positive controls.

The conditions of series [2]: all clinical trials combined; cited from earlier work.
The subject of series [3] is patients with PAH (WHO Group 1). The series can be described thus: ARIES-1 12-week placebo-controlled study. In kind it is in vivo, human. Conditions: for Mean change from baseline in 6-minute walk distance / Placebo-adjusted mean change from baseline in 6-minute walk distance / Placebo-adjusted median change from baseline in 6-minute walk distance: 12 weeks; for Mean change from baseline in 6-minute walk distance: mean ± SD. The method, then:
Two 12-week, randomized, double-blind, placebo-controlled, multicenter studies were conducted in 393 patients with PAH (WHO Group 1). The two studies were identical in design except for the doses of ambrisentan and the geographic region of the investigational sites. ARIES-1 (Ambrisentan in Pulmonary Arterial Hypertension, Randomized, Double-Blind, Placebo-Controlled, Multicenter, Efficacy Studies) compared once-daily doses of 5 mg and 10 mg ambrisentan to placebo, while ARIES-2 compared once-daily doses of 2.5 mg and 5 mg ambrisentan to placebo. In both studies, ambrisentan or placebo was added to current therapy, which could have included a combination of anticoagulants, diuretics, calcium channel blockers, or digoxin, but not epoprostenol, treprostinil, iloprost, bosentan, or sildenafil. The primary study endpoint was 6-minute walk distance. In addition, clinical worsening, WHO functional class, dyspnea, and SF-36® Health Survey were assessed.
Patients had idiopathic or heritable PAH (64%) or PAH associated with connective tissue diseases (32%), HIV infection (3%), or anorexigen use (1%). There were no patients with PAH associated with congenital heart disease.
Patients had WHO functional class I (2%), II (38%), III (55%), or IV (5%) symptoms at baseline. The mean age of patients was 50 years, 79% of patients were female, and 77% were Caucasian.
Clinical Worsening: Time to clinical worsening of PAH was defined as the first occurrence of death, lung transplantation, hospitalization for PAH, atrial septostomy, study withdrawal due to the addition of other PAH therapeutic agents or study withdrawal due to early escape. Early escape was defined as meeting two or more of the following criteria: a 20% decrease in the 6-minute walk distance; an increase in WHO functional class; worsening right ventricular failure; rapidly progressing cardiogenic, hepatic, or renal failure; or refractory systolic hypotension.

In series [4] the test system is patients with IPF, with or without pulmonary hypertension (WHO Group 3). The series can be described thus: Randomized controlled study in idiopathic pulmonary fibrosis. It counts as in vivo.
Series [5] can be described thus: Cumulative incidence of treatment-emergent serum aminotransferase abnormalities in clinical trials. It counts as in vivo, human. From the text: The ambrisentan clinical development program included placebo-controlled and non-placebo-controlled studies. One Phase 2 study (AMB-220) and two Phase 3 studies (AMB-320 and AMB-321) were completed at the time of the NDA submission. Three ongoing studies (AMB-220-E, AMB-222, and AMB-320/321-E) provided additional data in both the original NDA and the 4-month safety update, and data from one additional ongoing study (AMB-323) were included in the 4-month safety update.
The cumulative incidence of aminotransferase elevations by severity, summarized as a percentage of the cumulative number of subjects who received ambrisentan in clinical trials, is provided in Table 1. The cumulative incidence of aminotransferase elevations>3×ULN (upper limit of the normal range) accompanied by total bilirubin>2×ULN was 0.3% (2 subjects, both with alternative causes for the liver function test (LFT) abnormalities); the associated mean exposure to ambrisentan was 112.5 weeks (maximum, 341.0 weeks). In comparison, during the 12-week placebo controlled trials, 1 patient (1/132, 0.7%) receiving placebo had elevated aminotransferases (both alanine transaminase (ALT) and aspartate transaminase (AST) were >5×ULN) along with elevated total bilirubin (>2×ULN).

The target of series [6] is T2, multidrug resistance protein 2 (MRP2) (Homo sapiens, UniProt Q92887).
T2 construct: expressed in transfected cells; host or cells: Spodoptera frugiperda (Sf9) ovarian cells
The experiment in a line: Inhibition of hepatic transporter MRP2, transfected Sf9 cells. In kind it is cell-based. On the procedure:
as §1

Where [7] appears, read: ARIES-1, ambrisentan N = 134, 12-week treatment, intention-to-treat.
Setting [8] is: >3 × ULN and total bilirubin > 2 × ULN, N = 707.
Setting [9] is: Total > 3 × ULN, all subjects N = 707.

Bounds are passed on as bounds.

T2 sequence (Q92887 whole entry): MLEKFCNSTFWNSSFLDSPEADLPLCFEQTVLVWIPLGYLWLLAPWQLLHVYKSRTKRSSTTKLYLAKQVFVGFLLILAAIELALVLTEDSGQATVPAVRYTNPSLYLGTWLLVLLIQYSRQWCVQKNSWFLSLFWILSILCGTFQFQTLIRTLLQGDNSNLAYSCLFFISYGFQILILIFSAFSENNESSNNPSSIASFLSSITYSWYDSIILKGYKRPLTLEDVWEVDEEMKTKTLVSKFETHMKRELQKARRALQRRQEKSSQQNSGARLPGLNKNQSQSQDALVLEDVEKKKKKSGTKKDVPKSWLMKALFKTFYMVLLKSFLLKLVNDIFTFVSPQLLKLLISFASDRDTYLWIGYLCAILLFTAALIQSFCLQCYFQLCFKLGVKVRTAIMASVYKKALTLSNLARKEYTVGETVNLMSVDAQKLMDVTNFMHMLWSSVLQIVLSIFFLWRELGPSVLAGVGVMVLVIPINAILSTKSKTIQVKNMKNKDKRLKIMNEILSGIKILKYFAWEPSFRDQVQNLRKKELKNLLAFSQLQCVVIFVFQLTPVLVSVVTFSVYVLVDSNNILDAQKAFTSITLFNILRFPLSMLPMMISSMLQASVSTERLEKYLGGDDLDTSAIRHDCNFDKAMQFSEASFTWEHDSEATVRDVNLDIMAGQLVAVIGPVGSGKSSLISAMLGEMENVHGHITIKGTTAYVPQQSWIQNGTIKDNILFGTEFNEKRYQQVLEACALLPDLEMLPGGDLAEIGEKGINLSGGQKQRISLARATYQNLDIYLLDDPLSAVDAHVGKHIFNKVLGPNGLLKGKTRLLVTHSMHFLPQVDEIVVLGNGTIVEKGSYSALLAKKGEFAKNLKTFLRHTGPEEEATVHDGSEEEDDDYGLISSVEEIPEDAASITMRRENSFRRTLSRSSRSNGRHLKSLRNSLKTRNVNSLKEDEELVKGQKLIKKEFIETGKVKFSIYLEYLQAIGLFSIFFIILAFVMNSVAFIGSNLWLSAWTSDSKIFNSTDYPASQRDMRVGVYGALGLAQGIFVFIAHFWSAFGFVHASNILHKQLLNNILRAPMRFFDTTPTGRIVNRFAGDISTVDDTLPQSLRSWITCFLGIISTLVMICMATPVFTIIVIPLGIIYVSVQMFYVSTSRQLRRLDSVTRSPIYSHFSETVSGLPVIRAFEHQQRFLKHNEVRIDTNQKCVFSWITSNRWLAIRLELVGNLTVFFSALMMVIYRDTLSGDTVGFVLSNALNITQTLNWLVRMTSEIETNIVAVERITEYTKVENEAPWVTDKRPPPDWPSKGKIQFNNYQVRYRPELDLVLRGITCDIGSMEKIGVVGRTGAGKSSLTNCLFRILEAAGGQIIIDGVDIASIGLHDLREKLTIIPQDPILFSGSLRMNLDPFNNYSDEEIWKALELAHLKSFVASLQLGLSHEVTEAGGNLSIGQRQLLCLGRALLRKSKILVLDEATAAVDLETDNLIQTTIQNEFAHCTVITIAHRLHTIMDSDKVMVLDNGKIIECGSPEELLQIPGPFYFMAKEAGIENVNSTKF

With `COC(c1ccccc1)(c1ccccc1)[C@H](Oc1nc(C)cc(C)n1)C(=O)O` [Ambrisentan, (25)-2-[(4,6-dimethylpyrimidin-2-yl)oxy]-3-methoxy-3,3-diphenylpropanoic acid], in series [1], the IC50 worked out at 44.6 ± 23.8 µM. Besides, in series [2], the “1-year risk of significant aminotransferase abnormalities” value is reported as less than 3%. Besides, the “Mean change from baseline in 6-minute walk distance” value in series [3] (ARIES-1, 5 mg once daily (N = 67)) is on record as 23 ± 83 meters; in series [3] (ARIES-1, 10 mg once daily (N = 67)), 44 ± 63 meters. In addition, the “Placebo-adjusted mean change from baseline in 6-minute walk distance” value is reported as 31 meters in series [3] (ARIES-1, 5 mg) and 51 meters in series [3] (ARIES-1, 10 mg). The “Placebo-adjusted median change from baseline in 6-minute walk distance” value in series [3] (ARIES-1, 5 mg) stood at 27 meters; in series [3] (ARIES-1, 10 mg), 39 meters. Further, in series [3] (setting [7]), the “Clinical worsening, %” value came to 3%. Besides, the “Clinical worsening, no.” value in series [3] (setting [7]) is given as 4. For the same compound, the “Time to clinical worsening, hazard ratio” value in series [3] (ARIES-1, versus placebo) worked out at 0.28. This compound returned a patients who died in series [4] (ambrisentan n=329, placebo 4%) of 8%. Moreover, the “patients with a respiratory hospitalization” value in series [4] (ambrisentan n=329, placebo 6%) is given as 13%. The “patients with a decrease in FVC/DLCO” value in series [4] (ambrisentan n=329, placebo 12%) was 17%. Besides, the “risk of disease progression or death versus placebo” value in series [4] (study terminated after 34 weeks) is reported as “greater risk of disease progression or death”. Further, the “ALT/AST elevations, patient number” value is given as 25 in series [5] (>3 to ≦5 × ULN, N = 707); 2 in series [5] (setting [8]); 1 in series [5] (>5 to ≦8 × ULN, N = 707); 9 in series [5] (>8 × ULN, N = 707); 35 in series [5] (setting [9]). Also, the “ALT/AST elevations, patients (%)” value is recorded as “(3.5) %” in series [5] (>3 to ≦5 × ULN, N = 707); “(0.3) %” in series [5] (setting [8]); 0.3% in series [5] (>3 × ULN and total bilirubin > 2 × ULN, N = 707, listed as ambrisentan); “(0.1) %” in series [5] (>5 to ≦8 × ULN, N = 707); “(1.3) %” in series [5] (>8 × ULN, N = 707); “(5.0) %” in series [5] (setting [9]).
For the compound `COc1ccccc1Oc1c(NS(=O)(=O)c2ccc(C(C)(C)C)cc2)nc(-c2ncccn2)nc1OCCO` [Bosentan], the IC50 was greater than 100 µM in series [6] and 5.2 ± 2.1 µM in series [1].
